Entries after “also recorded” stand apart in the source; their conditions may differ.
Legend:
cells [1] = test system: cells
CF1 mice = details: i.p.
HIV-1 [2] = assay: Viral core protein p24 expression in H9 cell cultures (HIV-1 replication); assay type: cell-based, HIV-1 (H9 cells)
Experimental: (§1) FIG. 3 is a graph showing the effects of GAP 31, DAP 30 and DAP 32 on HIV-1 replication, measured by viral core antigen p24 expression and HIV-RT activity. p24 production was determined by RIA and expressed in ng/ml. Viral-RT activity was determined by the incorporation of [^3 H]dTTP into TCA-precipitable products and expressed as cpm×10^3 /ml. These values in control culture (without added plant proteins) were 2219 ng/ml and 846×10^3 cpm/ml, respectively, as determined in triplicates in two independent experiments. Results are normalized to values obtained in control cultures.
(§2) The anti-HIV activities of GAP 31, DAP 30, and DAP 32 were determined by microtiter syncytia formation in infectious cell center assay (Nara, P. L. et al., Nature 332:469-70 (1988)), viral core protein p24 expression (Nara, P. L. et al., AIDS Res. Human Retroviruses 3:283-302 (1987)), and viral-associated RT activity (Hoffman, A. D. et al., Virology 147:326-35 (1985)). […]
(§3) Assays of viral core protein p24 expression and HIV-RT activity were carried out in H9 cell cultures. […] The amount of p24 was measured by RIA and expressed in terms of ng/ml. HIV-RT activity was determined by the incorporation of [^3 H] labeled thymidine with poly(rA).p(dT)12-18 as primer-template and expressed in terms of cpm/ml.

H9 cells = assay: Cytotoxicity to uninfected H9 cells (cellular DNA and protein synthesis); assay type: cell-based
Experimental: FIG. 4 is a graph showing the cytotoxic activity of GAP 31, DAP 30 and DAP 32, measured as cellular incorporation of [^3 H] thymidine or leucine into TCA-insoluble material in pulse labeling experiments. H9 cells were seeded at 2×10^4 cells/well and cultures pulsed with 1 μCi (1 Ci=37 GBq) of label 8 hr prior to harvesting at day 4. DNA or protein synthesis were measured by scintillation counting of the incorporation of labelled precursors. Results are normalized to values obtained for controls cultures without added anti-HIV proteins. Control values for thymidine uptake was 201,000 cpm and for leucine was 61,000 cpm. Results are the average triplicate values in two independent experiments.
The cytotoxicities of the SCRIPs were measured by their effects on cellular DNA and protein syntheses in uninfected H9 cells. Target cells were grown in the absence and presence of various amounts of SCRIPs. The cultures were pulse labeled with 1 μCi of [^3 H] labeled thymidine or leucine for 8 hours prior to harvesting on day 4. Cellular incorporation of these labeled precursors into trichloroacetic acid (TCA) precipitable products was determined by scintillation counting. Cell viability was determined by trypan blue dye exclusion. Toxicity to intact animals was determined by intraperitoneal injection (i.p.) of the SCRIPs into mice. […]

HIV-1 [3] = assay: Syncytia formation in infectious cell center assay (HIV-1 infection); assay type: cell-based, HIV-1 (CEM-ss indicator cells)
Excerpt: FIG. 2 is a graph showing the effects of GAP 31, DAP 30 and DAP 32 on HIV-1 infection by inhibition of syncytia formation in an infectious cell center assay (ICC). Results represent average values of triplicates from two independent experiments. Triplicate wells of indicator cells containing the test compounds at each concentration without virus were also included for the determination of the cytotoxic and cytostatic activities of these anti-HIV proteins. Infectious cell centers (%ICC) are expressed in terms of Vn/Vo where Vn and Vo are average numbers of syncytia in the drug-treated and untreated samples respectively.
as §2
Freshly prepared indicator cells in culture medium at 5×10^4 in 100 μl were treated with 100 μl of SCRIP at various concentrations, for 90 min. […] Focal syncytium formation representing single infectious virion units was scored at day 5 by examination under an inverted microscope. […]

HIV-1 [4] = assay: Viral-associated reverse transcriptase (HIV-RT) activity in H9 cell cultures; assay type: cell-based, HIV-1 (H9 cells)
Experimental: as §1, §2, §3

HIV = details: literature; cited from earlier work
[5] = test system: ribosome (rabbit reticulocyte lysate system); assay: Ribosome-inactivating activity: cell-free translation of globin mRNA in rabbit reticulocyte lysate; assay type: biochemical
Experimental: FIG. 5 is a graph showing the ribosome-inactivating activity of GAP 31, […] and DAP 32, measured as in vitro translation of globin mRNA in a rabbit reticulocyte system. Inhibition of protein synthesis was determined by measuring incorporation of [^3 H]leucine into TCA-insoluble material as a function of drug concentration. Results are from two independent experiments each run in duplicate. Average control values for leucine incorporation without added anti-HIV protein is 65,000 cpm/μl. Results are shown as % of control plotted against concentration of the added anti-HIV protein.
Ribosome-inactivating activity was measured by cell-free protein biosynthesis in a rabbit reticulocyte lysate system. The reaction was carried out in a total volume of 25 μl containing 2 mM magnesium acetate, 80 mM potassium acetate, 2.5 mM spermidine, 34.5 mg/ml creatine phosphate, 26 mg/ml GTP, 250 mM HEPES buffer, 1 μCi of [3H] leucine and 1 μg of globin mRNA. Incubation was conducted at 37° C. for 30 min. The translation products were resolved by TLC in a solvent system of methanol/water/TCA/glacial acetic acid (30/50/10/10, V/V/W/V). The incorporation of [^3 H] labeled leucine into TCA precipitable product was measured by scintillation counting.

cells [6] = details: literature; cited from earlier work

| Substance | toxicity (cytotoxicity) in words (cells [1]) | In Vivo Toxicity, LD50 (range) (CF1 mice) | hepatic hyperplasia (CF1 mice; 0.1-100 mg per 100 gm body weight every three days) | Inhibition of p24 activity (expression), ID50 (HIV-1 [2]) | Cytotoxicity, ID50 (H9 cells) | Inhibition of syncytium formation, ID50 (HIV-1 [3]) | Inhibition of Reverse Transcriptase (HIV-RT activity), ID50 (HIV-1 [4]) | anti-HIV activity (HIV) | Ribosome-inactivation, ID50 [5] | cytotoxicity (cells [6]) |
| --- | --- | --- | --- | --- | --- | --- | --- | --- | --- | --- |
| SAP-6: a SCRIP isolated from Saponaria officinalis | relatively toxic |  |  |  |  |  |  |  |  |  |
| trichosanthin | toxic | 5 to 7 mg/kg | moderate hepatic hyperplasia | 0.37 nM | 340 nM | 0.34 nM | 0.46 nM | reduced viral antigen expression in, and were selectively toxic to, HIV-infected cells | 3.7 nM | toxic; also recorded: cytotoxic side effects |

— US5317009A, “Anti-HIV proteins GAP 31, DAP 30 and DAP 32 and therapeutic uses thereof” (New York University, priority 1991, dated 1994)
